# Values joined by “and” are separate entries in the source; they are usually repeats but may differ in a detail not shown here. Equal values may be shown once. Read-outs that look alike come from different tables or passages of the source.
# Columns and labels:
# Format in all cases: cell-based
# [1] = tested on: S. aureus (MN8)
# [2] = tested on: S. aureus (MN8); remark: listed apart in the source
# [3] = tested on: S. aureus FRI-1187; settings: for ELISA: TSST-1 ng/OD unit / Reduction of Toxin %: Table 5, FRI-1187
# [4] = tested on: S. aureus strain RN 6390
# [5] = tested on: S. aureus FRI-1169
# [6] = tested on: S. aureus FRI-1169; remark: listed apart in the source
# [7] = tested on: S. aureus FRI-1187
# [8] = Table 1, 0.5% test compound, 24 h
# [9] = Table 1, 0.5% test compound, vs control
# [10] = Table 6, Cetiol 1414E 0, PEA 0.05%
# [11] = Table 6, Cetiol 1414E 0, PEA 0.15%
# [12] = Table 6, Cetiol 1414E 0, PEA 0.3%
# [13] = Table 6, Cetiol 1414E 0, PEA 0.5%
# [14] = Table 10, Cetiol 2.5 mM, PABA 0%
# [15] = Table 10, Cetiol 10 mM, PABA 0%
molecule,measurement,setting,value
NC(=O)c1ccccc1O [2-hydroxybenzamide],CFU/mL,[1]; 24 h,9.0E+07 CFU/mL
same,Optical Density,"[1]; 24 h, 600 nm",0.549
same,ELISA: TSST-1 ng/OD unit,"[2]; Table 1, 1.0% test compound, 24 h",65 ng/OD unit
same,Reduction of Toxin %,"[2]; Table 1, 1.0% test compound, vs control",95%
O=C(O)c1ccccc1O [2-hydroxybenzoic acid],CFU/mL,[1],1.48E+09 CFU/mL
same,Optical Density,[1],0.682
same,ELISA: TSST-1 ng/OD unit,"[2]; Table 2, 0.2% test compound",193 ng/OD unit
CC(=O)Nc1ccc(O)cc1 [4-Acetamidophenol],CFU/mL,[1],2.4E+09 CFU/mL
same,Optical Density,[1],0.629
same,ELISA: TSST-1 ng/OD unit,"[2]; Table 4, 0.5% test compound",230 ng/OD unit
CC(=O)N[C@@H](Cc1ccc(O)cc1)C(=O)O [Acetyl tyrosine],CFU/mL,[1],1.7E+09 CFU/mL
same,Optical Density,[1],0.549
same,ELISA: TSST-1 ng/OD unit,"[2]; Table 3, 0.5% test compound",436 ng/OD unit
OCc1ccccc1 [Benzyl alcohol],CFU/mL,[1]; 24 h,1.8E+08 CFU/mL
same,Optical Density,"[1]; 24 h, 600 nm",0.792
same,ELISA: TSST-1 ng/OD unit,[2]; [8],131 ng/OD unit
same,Reduction of Toxin %,[2]; [9],91%
O=C(O)c1cc(O)c(O)c(O)c1 [Gallic acid],CFU/mL,[1],1.2E+09 CFU/mL
same,Optical Density,[1],0.492
same,ELISA: TSST-1 ng/OD unit,"[2]; Table 3, 0.5% test compound",63 ng/OD unit
OCCc1ccccc1 [Phenylethyl alcohol],reduction of the amount of exotoxin production,[3],significantly reduced
same,ELISA: TSST-1 ng/OD unit,[3]; 0.25% test compound,1 ng/OD unit
same,Reduction of Toxin %,[3]; 0.25% test compound,98%
same,ELISA: TSST-1 ng/OD unit,[3]; 0.5% test compound,none detected
same,Reduction of Toxin %,[3]; 0.5% test compound,100%
same,Hemolytic Endpoint 50% lysis,[4],None Detected
same,production of alpha toxin,[4],significantly reduced
same,% Toxin Inhibition,"[4]; Table 7, 0.3% test compound",97%
same,Hemolytic Endpoint 50% lysis,"[4]; Table 7, 0.3% test compound, reciprocal of the dilution giving 50% lysis",3
same,% Toxin Inhibition,"[4]; Table 7, 0.4% test compound",100%
same,Optical Density,[5],1.263 and 1.208
same,effect on the growth of S. aureus cells,[5],"minimal, if any, effect on the growth"
same,Reduction of Toxin %,[6],99% and 95%
same,Log CFU/mL,[1],8.6 Log CFU/mL and 8.7 Log CFU/mL and 8.5 Log CFU/mL
same,OD,[1],0.712 and 0.730 and 0.758 and 0.721
same,Optical Density,[1],0.542 and 0.551 and 0.476 and 0.554
same,Optical Density,[7],1.296 and 1.244
same,effect on the growth of S. aureus cells,[7],"minimal, if any, effect on the growth"
same,% Reduction,[2],57% and 80% and 93% and 98%
same,ELISA: TSST-1 ng/OD unit,[2]; [8],60 ng/OD unit
same,Reduction of Toxin %,[2]; [9],96%
same,ELISA: TSST-1 ng/OD unit,"[2]; Table 2, 0.5% test compound",68 ng/OD unit
same,ELISA: TSST-1 ng/OD unit,"[2]; Table 3, 0.5% test compound",46 ng/OD unit
same,ELISA: TSST-1 ng/OD unit,"[2]; Table 4, 0.5% test compound",25 ng/OD unit
same,Reduction of Toxin %,[2]; [10],32%
same,ng TSST-1 per CFU,[2]; [10],266 ng per CFU
same,ng TSST-1 per mL,[2]; [10],826 ng per mL
same,Reduction of Toxin %,[2]; [11],67%
same,ng TSST-1 per CFU,[2]; [11],129 ng per CFU
same,ng TSST-1 per mL,[2]; [11],561 ng per mL
same,Reduction of Toxin %,[2]; [12],90%
same,ng TSST-1 per CFU,[2]; [12],39 ng per CFU
same,ng TSST-1 per mL,[2]; [12],201 ng per mL
same,Reduction of Toxin %,[2]; [13],93%
same,ng TSST-1 per CFU,[2]; [13],27 ng per CFU
same,ng TSST-1 per mL,[2]; [13],106 ng per mL
same,ng TSST-1/OD,"[2]; Table 9, Glucopon 0 mM, PEA 0.05%",323 ng/OD
same,ng TSST-1/OD,"[2]; Table 9, Glucopon 0 mM, PEA 0.15%",152 ng/OD
same,ng TSST-1/OD,"[2]; Table 9, Glucopon 0 mM, PEA 0.3%",54 ng/OD
same,ng TSST-1/OD,"[2]; Table 9, Glucopon 0 mM, PEA 0.50%",13 ng/OD
O=C(O)/C=C/c1ccccc1 [Trans-cinnamic acid],CFU/mL,[1],1.7E+09 CFU/mL
same,Optical Density,[1],0.549
same,ELISA: TSST-1 ng/OD unit,"[2]; Table 3, 0.5% test compound",436 ng/OD unit
Nc1ccc(C(=O)O)cc1 [p-aminobenzoic acid],CFU/mL,[1],1.1E+09 CFU/mL and 1.53E+09 CFU/mL and 1.85E+09 CFU/mL and 1.79E+09 CFU/mL and 1.15E+09 CFU/mL
same,OD,[1],0.546 and 0.558 and 0.599 and 0.589
same,Optical Density,[1],0.618
same,ELISA: TSST-1 ng/OD unit,"[2]; Table 2, 0.2% test compound",317 ng/OD unit
same,ng TSST-1/OD,"[2]; Table 10, Cetiol 0 mM, PABA 0.05%",5670 ng/OD
same,ng TSST-1/OD,"[2]; Table 10, Cetiol 0 mM, PABA 0.09%",3389 ng/OD
same,ng TSST-1/OD,"[2]; Table 10, Cetiol 0 mM, PABA 0.19%",1975 ng/OD
same,ng TSST-1/OD,"[2]; Table 10, Cetiol 0 mM, PABA 0.38%",1039 ng/OD
"COC(=O)c1ccc(O)cc1 [p-hydroxybenzoic acid, methyl ester]",production of alpha toxin,[4],significantly reduced
same,% Toxin Inhibition,"[4]; Table 8, 0.1% test compound",70%
same,Hemolytic Endpoint 50% lysis,"[4]; Table 8, 0.1% test compound, reciprocal of the dilution giving 50% lysis",79
same,% Toxin Inhibition,"[4]; Table 8, 0.2% test compound",94%
same,Hemolytic Endpoint 50% lysis,"[4]; Table 8, 0.2% test compound, reciprocal of the dilution giving 50% lysis",16
same,CFU/mL,[1],>1.5E+08 CFU/mL
same,Optical Density,[1],0.356
same,ELISA: TSST-1 ng/OD unit,"[2]; Table 2, 0.2% test compound",506 ng/OD unit
myreth-3 myristate [Cetiol 1414E],Log CFU/mL,[1],8.6 Log CFU/mL and 8.5 Log CFU/mL
same,OD,[1],0.881 and 0.976 and 0.637
same,ng TSST-1 per CFU,"[2]; Table 6, Cetiol 1414E 2.5 mM, PEA 0",239 ng per CFU
same,ng TSST-1 per CFU,"[2]; Table 6, Cetiol 1414E 5 mM, PEA 0",172 ng per CFU
same,ng TSST-1 per CFU,"[2]; Table 6, Cetiol 1414E 10 mM, PEA 0",61 ng per CFU
same,% Reduction,[2]; [14],31%
same,ng TSST-1/OD,[2]; [14],3367 ng/OD
same,% Reduction,"[2]; Table 10, Cetiol 5 mM, PABA 0%",51%
same,ng TSST-1/OD,"[2]; Table 10, Cetiol 5 mM, PABA 0%",2419 ng/OD
same,% Reduction,[2]; [15],53%
same,ng TSST-1/OD,[2]; [15],2286 ng/OD

# From US7026354B2 (priority 2001, dated 2006)
